Experiments:
Experiment in all cases: Kinase Profiler 10 μM panel
GCN2(h) = GCN2(h) (Homo sapiens (Human), UniProt Q9P2K8)
Experimental: (§1) In vitro kinase assays were conducted using Kinase Profiler services provided by Eurofins. The experimental method was as follows: the small molecule compound to be tested (0.001-10 μM), the protein kinase to be tested were incubated with a buffer containing substrate, 10 mM magnesium acetate, and [γ-^33P-ATP], the reaction was started by adding Mg\TPmix, after incubation for a period of time at room temperature, a 3% phosphate solution was added to the buffer to stop the reaction. Subsequently, 10 μL of the reaction mixture was quantitatively pipetted onto P30 filter paper, which was washed three times with 75 mM phosphate solution and then once with methanol. The P30 filter paper was air-dried and scintillation fluid was added for scintillation counting.

cKit(D816V)(h) = cKit(D816V)(h) (Homo sapiens (Human), UniProt P10721, D816V)
Experimental: as §1

EGFR(T790M,L858R)(h) = EGFR(T790M,L858R)(h) (Homo sapiens (Human), UniProt P00533, L858R/T790M)
Experimental: as §1

PEK(h) = PEK(h) (Homo sapiens (Human), UniProt Q9NZJ5)
Experimental: as §1

GSK3β(h) = GSK3β(h) (Homo sapiens (Human), UniProt P49841)
Experimental: as §1

CDK18/cyclinY(h) = CDK18/cyclinY(h) (Homo sapiens (Human), UniProt Q07002)
Experimental: as §1

BIKe(h) = BIKe(h) (Homo sapiens (Human), UniProt Q9NSY1)
Experimental: as §1

GRK1(h) = GRK1(h) (Homo sapiens (Human), UniProt Q15835)
Experimental: as §1

PKBα(h) = PKBα(h) (Homo sapiens (Human), UniProt P31749)
Experimental: as §1

MARK1(h) = MARK1(h) (Homo sapiens (Human), UniProt Q9P0L2)
Experimental: as §1

Lck(h) = Lck(h) (Homo sapiens (Human), UniProt P06239)
Experimental: as §1

NEK9(h) = NEK9(h) (Homo sapiens (Human), UniProt Q8TD19)
Experimental: as §1

BrSK1(h) = BrSK1(h) (Homo sapiens (Human), UniProt Q8TDC3)
Experimental: as §1

MRCKβ(h) = MRCKβ(h) (Homo sapiens (Human), UniProt Q9Y5S2)
Experimental: as §1

Mer(h) = Mer(h) (Homo sapiens (Human), UniProt Q12866)
Experimental: as §1

CK1δ(h) = CK1δ(h) (Homo sapiens (Human), UniProt P48730)
Experimental: as §1

EGFR(T790M)(h) = EGFR(T790M)(h) (Homo sapiens (Human), UniProt P00533, T790M)
Experimental: as §1

[1] = target: PI3 Kinase (p110a/p65a)(m) (Mus musculus (Mouse), UniProt P42337)
Experimental: as §1

LTK(h) = LTK(h) (Homo sapiens (Human), UniProt P29376)
Experimental: as §1

STK32A(h) = STK32A(h) (Homo sapiens (Human), UniProt Q8WU08)
Experimental: as §1

ZAK(h) = ZAK(h) (Homo sapiens (Human), UniProt Q9NYL2)
Experimental: as §1

CSK(h) = CSK(h) (Homo sapiens (Human), UniProt P41240)
Experimental: as §1

CDK16/cyclinY(h) = CDK16/cyclinY(h) (Homo sapiens (Human), UniProt Q00536)
Experimental: as §1

Ret(V804M)(h) = Ret(V804M)(h) (Homo sapiens (Human), UniProt P07949, V804M)
Experimental: as §1

PRKG2(h) = PRKG2(h) (Homo sapiens (Human), UniProt Q13237)
Experimental: as §1

Rsk1(r) = Rsk1(r) (Rattus norvegicus (Rat), UniProt Q63531)
Experimental: as §1

LIMK2(h) = LIMK2(h) (Homo sapiens (Human), UniProt P53671)
Experimental: as §1

TrkC(h) = TrkC(h) (Homo sapiens (Human), UniProt Q16288)
Experimental: as §1

Wee1(h) = Wee1(h) (Homo sapiens (Human), UniProt P30291)
Experimental: as §1

NIM1(h) = NIM1(h) (Homo sapiens (Human), UniProt Q8IY84)
Experimental: as §1

MARK3(h) = MARK3(h) (Homo sapiens (Human), UniProt P27448)
Experimental: as §1

PDGFRα(D842V)(h) = PDGFRα(D842V)(h) (Homo sapiens (Human), UniProt P16234, D842V)
Experimental: as §1

MAK(h) = MAK(h) (Homo sapiens (Human), UniProt P20794)
Experimental: as §1

Sequence of EGFR(T790M,L858R)(h) (P00533 25-1210 T790M/L858R): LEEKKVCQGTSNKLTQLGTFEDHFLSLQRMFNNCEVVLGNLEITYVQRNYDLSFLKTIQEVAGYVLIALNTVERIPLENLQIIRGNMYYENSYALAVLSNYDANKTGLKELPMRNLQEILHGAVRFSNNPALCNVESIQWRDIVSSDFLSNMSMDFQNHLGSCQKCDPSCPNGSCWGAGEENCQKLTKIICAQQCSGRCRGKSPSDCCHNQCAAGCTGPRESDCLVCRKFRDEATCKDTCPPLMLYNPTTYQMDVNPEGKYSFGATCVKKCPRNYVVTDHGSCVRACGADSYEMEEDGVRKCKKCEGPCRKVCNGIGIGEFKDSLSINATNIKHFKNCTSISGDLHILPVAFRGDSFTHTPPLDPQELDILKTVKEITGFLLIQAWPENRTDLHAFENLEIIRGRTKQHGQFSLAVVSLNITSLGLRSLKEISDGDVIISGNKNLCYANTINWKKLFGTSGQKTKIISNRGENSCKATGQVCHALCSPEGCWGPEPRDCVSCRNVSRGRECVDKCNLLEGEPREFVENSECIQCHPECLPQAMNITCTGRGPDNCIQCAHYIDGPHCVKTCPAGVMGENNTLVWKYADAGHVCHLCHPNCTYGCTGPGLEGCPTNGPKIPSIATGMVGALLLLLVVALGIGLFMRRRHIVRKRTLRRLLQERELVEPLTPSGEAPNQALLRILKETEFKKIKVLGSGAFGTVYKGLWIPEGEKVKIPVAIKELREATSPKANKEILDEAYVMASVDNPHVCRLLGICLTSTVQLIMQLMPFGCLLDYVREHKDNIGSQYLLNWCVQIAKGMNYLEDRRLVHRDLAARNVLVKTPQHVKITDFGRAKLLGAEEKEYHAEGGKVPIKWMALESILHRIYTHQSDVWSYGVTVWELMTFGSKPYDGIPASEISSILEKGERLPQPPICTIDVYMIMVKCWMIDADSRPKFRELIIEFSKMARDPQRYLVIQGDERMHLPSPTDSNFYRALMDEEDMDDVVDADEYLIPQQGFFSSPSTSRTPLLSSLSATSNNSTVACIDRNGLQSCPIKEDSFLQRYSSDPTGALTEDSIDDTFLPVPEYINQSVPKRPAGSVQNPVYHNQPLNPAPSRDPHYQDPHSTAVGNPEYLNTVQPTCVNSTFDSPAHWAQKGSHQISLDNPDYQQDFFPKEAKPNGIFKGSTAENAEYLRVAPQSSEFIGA
Sequence of MARK3(h) (P27448 whole entry): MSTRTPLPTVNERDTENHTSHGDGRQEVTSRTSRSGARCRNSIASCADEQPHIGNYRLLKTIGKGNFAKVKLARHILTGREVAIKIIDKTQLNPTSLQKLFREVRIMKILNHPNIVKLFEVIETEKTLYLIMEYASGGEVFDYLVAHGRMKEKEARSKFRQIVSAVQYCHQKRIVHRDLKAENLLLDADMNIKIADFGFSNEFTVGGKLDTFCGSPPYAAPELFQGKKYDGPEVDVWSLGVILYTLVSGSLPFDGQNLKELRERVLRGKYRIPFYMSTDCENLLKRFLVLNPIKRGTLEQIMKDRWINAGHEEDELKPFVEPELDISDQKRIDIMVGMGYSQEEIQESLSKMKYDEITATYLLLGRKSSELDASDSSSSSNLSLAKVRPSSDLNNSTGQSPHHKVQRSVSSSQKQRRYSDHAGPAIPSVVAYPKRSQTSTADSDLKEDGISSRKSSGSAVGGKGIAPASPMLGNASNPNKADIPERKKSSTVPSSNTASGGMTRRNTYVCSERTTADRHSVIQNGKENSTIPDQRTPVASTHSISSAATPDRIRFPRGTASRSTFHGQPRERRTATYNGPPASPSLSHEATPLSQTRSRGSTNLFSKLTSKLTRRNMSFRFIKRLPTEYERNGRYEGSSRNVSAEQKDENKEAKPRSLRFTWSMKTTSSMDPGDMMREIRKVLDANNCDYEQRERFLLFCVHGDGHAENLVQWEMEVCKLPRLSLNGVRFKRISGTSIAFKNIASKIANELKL
Sequence of MARK1(h) (Q9P0L2 whole entry): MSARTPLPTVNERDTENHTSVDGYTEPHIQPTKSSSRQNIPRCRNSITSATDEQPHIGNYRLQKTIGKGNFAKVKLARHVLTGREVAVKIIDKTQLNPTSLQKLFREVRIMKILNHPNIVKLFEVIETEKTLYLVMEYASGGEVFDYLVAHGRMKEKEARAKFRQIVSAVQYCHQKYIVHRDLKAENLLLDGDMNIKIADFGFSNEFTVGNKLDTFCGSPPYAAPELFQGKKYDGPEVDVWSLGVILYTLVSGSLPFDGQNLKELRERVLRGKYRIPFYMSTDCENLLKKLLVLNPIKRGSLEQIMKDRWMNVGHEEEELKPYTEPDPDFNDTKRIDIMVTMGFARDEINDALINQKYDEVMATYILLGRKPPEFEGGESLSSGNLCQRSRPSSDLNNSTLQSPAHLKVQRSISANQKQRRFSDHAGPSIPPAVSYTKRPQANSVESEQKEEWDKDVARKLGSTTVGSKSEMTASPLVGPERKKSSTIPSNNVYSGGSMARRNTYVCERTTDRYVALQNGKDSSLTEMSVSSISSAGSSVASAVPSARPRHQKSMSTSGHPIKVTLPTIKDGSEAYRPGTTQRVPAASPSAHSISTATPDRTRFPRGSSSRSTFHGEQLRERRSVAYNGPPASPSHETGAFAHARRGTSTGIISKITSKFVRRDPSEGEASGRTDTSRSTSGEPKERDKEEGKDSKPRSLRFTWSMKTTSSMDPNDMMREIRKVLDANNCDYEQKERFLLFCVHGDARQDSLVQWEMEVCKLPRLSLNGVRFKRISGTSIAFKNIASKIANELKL
Sequence of Wee1(h) (P30291 whole entry): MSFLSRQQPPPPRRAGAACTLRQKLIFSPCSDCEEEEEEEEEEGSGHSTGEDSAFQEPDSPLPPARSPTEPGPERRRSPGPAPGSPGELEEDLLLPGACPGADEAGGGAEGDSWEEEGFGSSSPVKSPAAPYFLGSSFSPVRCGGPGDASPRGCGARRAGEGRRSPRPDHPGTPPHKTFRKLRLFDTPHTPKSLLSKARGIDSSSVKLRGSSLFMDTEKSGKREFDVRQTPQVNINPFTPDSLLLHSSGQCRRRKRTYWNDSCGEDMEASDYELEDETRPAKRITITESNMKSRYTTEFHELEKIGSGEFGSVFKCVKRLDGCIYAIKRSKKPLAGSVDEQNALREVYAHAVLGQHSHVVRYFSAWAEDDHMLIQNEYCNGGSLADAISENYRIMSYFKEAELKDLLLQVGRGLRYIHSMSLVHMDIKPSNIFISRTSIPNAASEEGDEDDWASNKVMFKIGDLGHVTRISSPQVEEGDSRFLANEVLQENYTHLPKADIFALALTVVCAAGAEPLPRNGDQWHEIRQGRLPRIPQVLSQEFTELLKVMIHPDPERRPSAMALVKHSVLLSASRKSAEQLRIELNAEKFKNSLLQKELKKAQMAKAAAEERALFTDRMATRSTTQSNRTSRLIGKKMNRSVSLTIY
Sequence of BIKe(h) (Q9NSY1 whole entry): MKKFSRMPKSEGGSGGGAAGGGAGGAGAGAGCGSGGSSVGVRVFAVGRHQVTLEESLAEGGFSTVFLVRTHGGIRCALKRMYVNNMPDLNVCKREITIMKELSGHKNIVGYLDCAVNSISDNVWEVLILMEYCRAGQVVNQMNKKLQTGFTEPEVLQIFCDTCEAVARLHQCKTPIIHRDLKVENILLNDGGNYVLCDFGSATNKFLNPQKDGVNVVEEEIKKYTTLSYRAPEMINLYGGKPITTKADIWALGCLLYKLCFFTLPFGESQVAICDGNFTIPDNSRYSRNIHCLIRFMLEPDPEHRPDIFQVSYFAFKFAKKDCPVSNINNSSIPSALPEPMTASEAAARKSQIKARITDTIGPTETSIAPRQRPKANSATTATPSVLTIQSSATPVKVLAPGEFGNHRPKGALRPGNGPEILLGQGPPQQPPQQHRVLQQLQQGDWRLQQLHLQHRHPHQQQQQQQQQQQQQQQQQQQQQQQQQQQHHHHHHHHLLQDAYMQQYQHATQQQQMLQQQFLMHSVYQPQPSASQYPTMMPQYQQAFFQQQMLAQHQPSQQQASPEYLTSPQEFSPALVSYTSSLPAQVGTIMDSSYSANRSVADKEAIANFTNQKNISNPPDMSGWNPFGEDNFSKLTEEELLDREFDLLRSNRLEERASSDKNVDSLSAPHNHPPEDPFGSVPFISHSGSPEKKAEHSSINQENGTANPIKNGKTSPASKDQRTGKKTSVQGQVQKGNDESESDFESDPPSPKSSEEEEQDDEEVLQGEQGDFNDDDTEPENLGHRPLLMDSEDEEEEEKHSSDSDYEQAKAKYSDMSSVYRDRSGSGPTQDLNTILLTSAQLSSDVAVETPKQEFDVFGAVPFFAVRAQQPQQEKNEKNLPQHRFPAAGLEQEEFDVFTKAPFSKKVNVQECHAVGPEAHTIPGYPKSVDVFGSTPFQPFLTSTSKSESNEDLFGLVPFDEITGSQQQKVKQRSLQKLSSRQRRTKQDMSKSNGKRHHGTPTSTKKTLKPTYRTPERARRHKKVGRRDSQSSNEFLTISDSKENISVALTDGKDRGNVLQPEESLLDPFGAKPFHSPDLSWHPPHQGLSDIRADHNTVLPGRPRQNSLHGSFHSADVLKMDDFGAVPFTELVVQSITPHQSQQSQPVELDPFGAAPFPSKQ
Sequence of STK32A(h) (Q8WU08 whole entry): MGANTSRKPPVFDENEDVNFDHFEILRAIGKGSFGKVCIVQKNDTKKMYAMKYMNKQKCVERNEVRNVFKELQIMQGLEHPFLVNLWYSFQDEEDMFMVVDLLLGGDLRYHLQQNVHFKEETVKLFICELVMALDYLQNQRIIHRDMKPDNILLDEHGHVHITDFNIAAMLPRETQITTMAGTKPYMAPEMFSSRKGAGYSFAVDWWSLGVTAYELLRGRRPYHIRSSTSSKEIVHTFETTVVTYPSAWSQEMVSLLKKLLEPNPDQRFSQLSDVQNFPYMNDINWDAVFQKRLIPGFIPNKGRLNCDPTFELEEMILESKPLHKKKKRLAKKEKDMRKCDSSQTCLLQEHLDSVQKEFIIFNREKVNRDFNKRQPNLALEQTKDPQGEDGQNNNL

Q: What does the source list for `C[C@H](NC(=O)c1cn(C)c2ccc(-c3ccn4nc(NC(=O)C5CC5)nc4c3)cc12)c1cccc(F)c1` [Compound 94, (S)-5-(2-(cyclopropanecarboxamido)-[1,2,4]triazolo[1,5-a]pyridin-7-yl)-N-(1-(3-fluorophenyl)ethyl)-1-methyl-1H-indole-3-carboxamide]?
A: Inhibition ratio/% (GCN2(h)): 23%; Inhibition ratio/% (cKit(D816V)(h)): 75%; Inhibition ratio/% (EGFR(T790M,L858R)(h); EGFR(T790M, L858R)(h)): 52%; Inhibition ratio/% (PEK(h)): 36%; Inhibition ratio/% (GSK3β(h)): 1%; Inhibition ratio/% (CDK18/cyclinY(h)): 74%; Inhibition ratio/% (BIKe(h)): −2%; Inhibition ratio/% (GRK1(h)): 52%; Inhibition ratio/% (PKBα(h)): −11%; Inhibition ratio/% (MARK1(h)): −13%; Inhibition ratio/% (Lck(h)): 44%; Inhibition ratio/% (NEK9(h)): −10%; Inhibition ratio/% (BrSK1(h)): 31%; Inhibition ratio/% (MRCKβ(h)): −4%; Inhibition ratio/% (Mer(h)): −6%; Inhibition ratio/% (CK1δ(h)): −12%; Inhibition ratio/% (EGFR(T790M)(h)): −10%; Inhibition ratio/% [1]: 10%; Inhibition ratio/% (LTK(h)): 5%; Inhibition ratio/% (STK32A(h)): 55%; Inhibition ratio/% (ZAK(h)): 59%; Inhibition ratio/% (CSK(h)): 60%; Inhibition ratio/% (CDK16/cyclinY(h)): 51%; Inhibition ratio/% (Ret(V804M)(h)): 45%; Inhibition ratio/% (PRKG2(h)): −9%; Inhibition ratio/% (Rsk1(r)): 20%; Inhibition ratio/% (LIMK2(h)): 19%; Inhibition ratio/% (TrkC(h)): 28%; Inhibition ratio/% (Wee1(h)): 1%; Inhibition ratio/% (NIM1(h)): 10%; Inhibition ratio/% (MARK3(h)): −3%; Inhibition ratio/% (PDGFRα(D842V)(h)): 37%; Inhibition ratio/% (MAK(h)): 45%

Q: Which Inhibition ratio (GCN2(h)) does the source give for `C[C@H](NC(=O)c1c[nH]c2ccc(-c3ccc4nc(NC(=O)C5CC5)sc4c3)cc12)c1cccc(F)c1` [Compound 34, (S)-5-(2-(cyclopropanecarboxamido)benzo[d]thiazol-6-yl)-N-(1-(3-fluorophenyl)ethyl)-1H-indole-3-carboxamide] here?
A: Its Inhibition ratio is 14%.

Q: What about the Inhibition ratio (cKit(D816V)(h)) of the same molecule?
A: The Inhibition ratio was 0%.

Q: What about the Inhibition ratio (EGFR(T790M,L858R)(h); EGFR(T790M,L858R)(h)) of the same molecule?
A: The Inhibition ratio was 84%.

Q: What about the Inhibition ratio (PEK(h)) of the same molecule?
A: Its Inhibition ratio is 1%.

Q: What about the Inhibition ratio (GSK3β(h)) of the same molecule?
A: Its Inhibition ratio is 13%.

Q: And the Inhibition ratio (CDK18/cyclinY(h))?
A: The Inhibition ratio was 7%.

Q: And the Inhibition ratio (BIKe(h))?
A: Its Inhibition ratio is 8%.

Q: And the Inhibition ratio (GRK1(h))?
A: The Inhibition ratio was −24%.

Q: And the Inhibition ratio (PKBα(h))?
A: The Inhibition ratio was 11%.

Q: What about the Inhibition ratio (MARK1(h)) of the same molecule?
A: Its Inhibition ratio is 6%.

Q: And the Inhibition ratio (Lck(h))?
A: The Inhibition ratio was 65%.

Q: What about the Inhibition ratio (NEK9(h)) of the same molecule?
A: The Inhibition ratio was 13%.

Q: What about the Inhibition ratio (BrSK1(h)) of the same molecule?
A: Its Inhibition ratio is −28%.

Q: What about the Inhibition ratio (MRCKβ(h)) of the same molecule?
A: Its Inhibition ratio is −5%.

Q: What about the Inhibition ratio (Mer(h)) of the same molecule?
A: Its Inhibition ratio is 97%.

Q: What about the Inhibition ratio (CK1δ(h)) of the same molecule?
A: The Inhibition ratio was 33%.

Q: What about the Inhibition ratio (EGFR(T790M)(h)) of the same molecule?
A: Its Inhibition ratio is 40%.

Q: And the Inhibition ratio [1]?
A: Its Inhibition ratio is 30%.

Q: What about the Inhibition ratio (LTK(h)) of the same molecule?
A: The Inhibition ratio was 23%.

Q: And the Inhibition ratio (STK32A(h))?
A: Its Inhibition ratio is 16%.

Q: And the Inhibition ratio (ZAK(h))?
A: Its Inhibition ratio is 67%.

Q: And the Inhibition ratio (CSK(h))?
A: Its Inhibition ratio is 13%.

Q: What about the Inhibition ratio (CDK16/cyclinY(h)) of the same molecule?
A: The Inhibition ratio was −30%.

Q: And the Inhibition ratio (Ret(V804M)(h))?
A: The Inhibition ratio was 98%.

Q: What about the Inhibition ratio (PRKG2(h)) of the same molecule?
A: The Inhibition ratio was 3%.

Q: And the Inhibition ratio (Rsk1(r))?
A: The Inhibition ratio was 45%.

Q: What about the Inhibition ratio (LIMK2(h)) of the same molecule?
A: Its Inhibition ratio is 44%.

Q: And the Inhibition ratio (TrkC(h))?
A: The Inhibition ratio was 104%.

Q: What about the Inhibition ratio (Wee1(h)) of the same molecule?
A: The Inhibition ratio was −1%.

Q: What about the Inhibition ratio (NIM1(h)) of the same molecule?
A: The Inhibition ratio was −19%.

Q: And the Inhibition ratio (MARK3(h))?
A: The Inhibition ratio was 0%.

Q: And the Inhibition ratio (PDGFRα(D842V)(h))?
A: Its Inhibition ratio is 56%.

Q: What about the Inhibition ratio (MAK(h)) of the same molecule?
A: Its Inhibition ratio is 2%.

Reference: patent US20230365546A1, “5-SUBSTITUTED INDOLE 3-AMIDE DERIVATIVES, PREPARATION METHOD AND USE THEREOF” (ORIGIANT PHARMACEUTICAL CO., LTD, priority 2020, published 2023)
